# Measurements from article PMC9365994, “Small molecules to regulate the GH/IGF1 axis by inhibiting the growth hormone receptor synthesis” (Frontiers in Endocrinology, 2022).
# Like-named read-outs stand apart in the source and are kept apart here.
# System: phosphorylated fos-GHRct (fos-GHRct/Jak2 signaling)
# Assay: Cell based primary screen: immune fluorescence (anti-GHR, anti-pY, anti-pJak2, anti-pSTAT5) of fos-GHRct-transfected γ2A iJak2 cells
# Parameters: species or system human
# Conditions: for phosphorylation of STAT5 (pSTAT5) / phosphorylation of fos-pGHRct (pY) / phosphorylation of the active site of Jak2 (p1007/1008): concentration curves, Fig S10
# Method: Drug handling and cell-based assays are detailed in Supplementary Data 1 , automation. High-Content StratoMineR ([35]). After incubation with the compounds, the cells were fixed and the fluorescence (anti-GHR, anti-pY, anti-pJak2, anti-pSTAT5) was quantitated.
# As it was unknown whether the GH/IGF1 axis is druggable, we designed a broad strategy based on our previous studies in which soluble fos-zipped GHR cytosolic tails (fos-GHRct) can serve as signaling complexes if co-expressed with Jak ([32], [39]). Fos-GHRct expressed without Jak2 is immediately degraded by the ubiquitin pathway. Phosphorylated fos-GHRct (fos-pGHRct) detaches from Jak2 and unzips. Only unzipped fos-pGHRct are protected from proteasomal degradation and accumulate in the cell. […] For 6 scenarios the signal will be decreased: (1) inhibition of Jak2 kinase activity, (2) inhibition of fos-GHRct expression, (3) inhibition of the fos-GHRct : Jak2 interaction, (4) increased degradation of fos-pGHRct, (5) increased degradation of Jak2, and (6) dephosphorylation of fos-pGHRct ([32], [39]).
# Figure 1 Diagram of the primary screen. […] If fos-GHRct and Jak2 bind via FERM and box-1, Jak2 gets activated and phosphorylates itself, the dimerized fos-GHRct and STAT5b. After phosphorylation of fos-GHRct, Jak2 and STAT5, the complex dissociates. As fos-pGHRct is protease-resistant, it accumulates in the cells. Unphosphorylated fos-GHRct is rapidly degraded. Steady state levels of fos-pGHRct are lower if one of the 6 scenarios is valid. The cell-based assay was performed in γ2A cells carrying inducible Jak2 (iJak2) or binding-deficient iJak2 Y119E (as control) ( Figure 2 ). […]
# 1. Cell based primary screen
# The assay was based on Fos-zippered GHR cytosolic tails (fos-GHRct) subsequently acting […]
# Fig S1A. Immune Fluorescence staining of γ2a Fig S1B. Immune Fluorescence staining of γ2a monoclonal cell line stably transfected with an monoclonal cell line stably transfected with an inducible Jak2 WT expression construct. inducible Jak2 Y119E expression construct. aim we used a human fibroblast cell line
# From this line we generated doxycycline inducible Jak2 clones, expressing either wild type Jak2 or Y119E mutant Jak2 whose FERM domain does […]
# To establish a sensitive test, sufficient […]
# control the system, we used fos-GHRct mutated in box-1 or the cell line expressing mutant (Y119E) Jak2. The box-1 motif is the binding site of Jak2 in GHR; mutation of this motif (all four proline into alanine) is known to reduce the binding between GHR and Jak2. In the primary screen we measured 4 different signals: fos-GHRct (anti-GHR), tyrosine phosphorylated fos-GHRct (anti-pY), tyrosine phosphorylated Jak2 (anti-pY or anti- […]
# inhibition of either fos-GHRct stabilization or fos-GHRct synthesis, are considered positive.
# Immunoblots are not appropriate for high throughput screening. Using fos-GHRct-transfected cells as in Fig. S3 and pY-specific primary antibodies, we developed a high throughput screening assay based on pY-fos-GHRct immune fluorescent detection in 384-well plates with automated microscopy. […]
# panel). From left to right: Dapi staining to visualize nuclei, fos-GHRct staining: GHRtails are detected by […]
# [1] = Homo sapiens, Figure 4, ranked according inhibitory effects on GHR signaling and/or cell proliferation, read-out: IC50
# [2] = Homo sapiens, Table_2.xlsx, second analogue set, read-out: GHR INHIBITORS, BM#, IC50
Compound,IC50 [1] [nM],IC50 [2] [nM],phosphorylation of STAT5 (pSTAT5),phosphorylation of fos-pGHRct (pY),phosphorylation of the active site of Jak2 (p1007/1008),also measured
Cc1nc(N)nc(N)c1/C=C/C1(c2ccc(C(F)(F)F)cc2)CC1 [BM001],20 to 30,,,,,"EC50 (Homo sapiens, Table_2.xlsx, cell prints EC50, read-out: GHR INHIBITORS, BM#, EC50): 20 to 30 nM"
Cc1c(-c2cccc(C#N)c2)ccc2nc(N)nc(N)c12 [BM002],,50,,,,
COc1cc(CN(C)c2ccc3nc(N)nc(N)c3c2)cc(OC)c1OC [BM003],,50,,,,
Cc1nc(N)nc(N)c1C#CC1(c2ccc(Cl)cc2)CC1 [BM004],80,,lowered,lowered,lowered,"IC50 (Homo sapiens, primary screen protocol, 20 h, read-out: IC50, dose-response on pY levels (fos-GHRct, pJak2, pSTAT5)): ~200 nM; IC50, dose-response on pY levels (fos-GHRct, pJak2, pSTAT5) (primary screen protocol, 20 h): comparable to that of Ruxolitinib"
CCOc1cccc2nc(N)nc(N)c12 [BM012],,,lowered,lowered,lowered,"IC50 (Homo sapiens, Table_1.xlsx, first analogue set, read-out: GHR INHIBITORS, BM#, (IC50)): 900 nM"
"N#CC[C@H](C1CCCC1)n1cc(-c2ncnc3[nH]ccc23)cn1 [Ruxolitinib, reference compound]",,,,,,pY signal at plateau of dose-response: close to zero
